# In patent US8759295B2, “Peptide-peptidase inhibitor conjugates and methods of using same” (Amylin Pharmaceuticals, LLC, priority 2006, dated 2014):
# Target: T1, ACE from rabbit lung (Oryctolagus cuniculus, UniProt P12822)
# T1 construct: ACE from rabbit lung, Sigma Chemical Co., St. Louis, Mo; purchased Sigma Chemical Co., St. Louis, Mo; host or cells: rabbit lung (tissue-derived enzyme)
# T1 sequence (P12822 34-1310): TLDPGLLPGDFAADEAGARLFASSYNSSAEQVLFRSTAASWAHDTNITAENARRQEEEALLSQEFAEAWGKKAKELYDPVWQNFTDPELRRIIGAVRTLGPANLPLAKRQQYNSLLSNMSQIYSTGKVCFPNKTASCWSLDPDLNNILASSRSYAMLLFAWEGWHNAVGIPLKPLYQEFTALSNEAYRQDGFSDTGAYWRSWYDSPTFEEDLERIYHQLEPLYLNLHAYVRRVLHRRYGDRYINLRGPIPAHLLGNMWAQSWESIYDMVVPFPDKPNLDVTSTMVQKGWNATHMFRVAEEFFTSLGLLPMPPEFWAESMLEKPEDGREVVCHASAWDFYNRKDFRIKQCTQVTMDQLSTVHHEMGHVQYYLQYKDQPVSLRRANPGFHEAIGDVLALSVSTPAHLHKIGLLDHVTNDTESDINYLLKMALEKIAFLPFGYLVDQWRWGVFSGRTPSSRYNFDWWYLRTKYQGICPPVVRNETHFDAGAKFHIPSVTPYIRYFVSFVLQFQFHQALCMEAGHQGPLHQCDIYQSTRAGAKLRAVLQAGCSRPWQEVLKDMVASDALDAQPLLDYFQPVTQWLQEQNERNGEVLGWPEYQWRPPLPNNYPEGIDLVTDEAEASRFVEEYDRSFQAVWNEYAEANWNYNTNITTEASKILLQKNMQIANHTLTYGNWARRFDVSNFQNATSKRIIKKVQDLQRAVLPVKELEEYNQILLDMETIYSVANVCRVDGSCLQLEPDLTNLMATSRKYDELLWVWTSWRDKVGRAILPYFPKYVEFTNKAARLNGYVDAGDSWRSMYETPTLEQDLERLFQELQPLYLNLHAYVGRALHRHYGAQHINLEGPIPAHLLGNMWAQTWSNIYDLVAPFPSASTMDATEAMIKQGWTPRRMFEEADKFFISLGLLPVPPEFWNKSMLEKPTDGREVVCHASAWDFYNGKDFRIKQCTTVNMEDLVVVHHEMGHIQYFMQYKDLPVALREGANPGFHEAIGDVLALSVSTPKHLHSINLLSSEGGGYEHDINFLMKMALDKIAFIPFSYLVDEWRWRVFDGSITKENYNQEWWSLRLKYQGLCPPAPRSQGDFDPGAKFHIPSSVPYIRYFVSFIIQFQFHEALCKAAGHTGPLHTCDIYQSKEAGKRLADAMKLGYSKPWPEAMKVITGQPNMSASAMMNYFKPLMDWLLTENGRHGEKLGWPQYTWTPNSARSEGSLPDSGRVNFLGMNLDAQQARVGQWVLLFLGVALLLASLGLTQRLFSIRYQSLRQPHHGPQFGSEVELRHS
# Test: ACE inhibition assay
# Assay type: biochemical
# Protocol: Peptide-ACE peptidase inhibitor conjugate compounds were assessed in an ACE inhibition assay using purified ACE enzyme and chromogenic substrates. An ACE stock solution was prepared by dissolving 0.1 unit of enzyme (ACE from rabbit lung, Sigma Chemical Co., St. Louis, Mo.) in 0.640 mL of HEPES buffer (0.1 M, pH=8). A 2 mM stock solution of substrate (N-benzyloxycarbonyl-Phe-His-Leu-OH) dissolved in methanol. The ACE inhibitor compounds were dissolved in phosphate buffer (0.1 M, pH=8) at concentrations of 0.0, 1, 10, 20, 60 and 100 μM. For the inhibition assay, six 2 mL microcentrifuge tubes were prepared containing 1.45 mL of phosphate buffer pH=8, 0.05 mL of 10% NaCl and 0.015 mL of substrate solution. To each microcentrifuge tube was added 0.015 mL of one of the ACE inhibitor compound's stock solutions. The solutions were heated at 37° C. for about 5 minutes. […] Initial rates were determined from linear portions of product release curves. […] Apparent binding constants (Kd^app or Ki^app) of inhibitors to ACE were determined by fitting inhibition curves (initial rate vs. inhibitor concentration) to equation:
# [formula] where v0 is reaction rate in the absence of inhibitor and [I]—inhibitor concentration. Fits were done by least-squares method using KaleidaGraph 3.6 (Synergy Software, Reading Pa.).
structure (smiles),measurement,value
"CC[C@H](C)[C@H](NC(=O)[C@H](Cc1ccccc1)NC(=O)[C@H](CCC(=O)O)NC(=O)[C@H](CCCCN)NC(=O)[C@H](C)NC(=O)[C@H](C)NC(=O)[C@H](CCC(N)=O)NC(=O)CNC(=O)[C@H](CCC(=O)O)NC(=O)[C@H](CC(C)C)NC(=O)[C@H](Cc1ccc(O)cc1)NC(=O)[C@H](CO)NC(=O)[C@H](CO)NC(=O)[C@@H](NC(=O)[C@H](CC(=O)O)NC(=O)[C@H](CO)NC(=O)[C@@H](NC(=O)[C@H](Cc1ccccc1)NC(=O)[C@@H](NC(=O)CNC(=O)[C@H](CCC(=O)O)NC(=O)[C@H](C)NC(=O)[C@@H](N)Cc1c[nH]cn1)[C@@H](C)O)[C@@H](C)O)C(C)C)C(=O)N[C@@H](C)C(=O)N[C@@H](Cc1c[nH]c2ccccc12)C(=O)N[C@@H](CC(C)C)C(=O)N[C@H](C(=O)N[C@@H](CCCCN)C(=O)NCC(=O)N[C@@H](CCCNC(=N)N)C(=O)NCC(=O)NCCCC(=O)NCCCC[C@H](NC(=O)[C@@H]1CCC(=O)N1)C(=O)N[C@@H](Cc1c[nH]c2ccccc12)C(=O)N[C@@H](C)C(=O)N1CCC[C@H]1C(=O)O)C(C)C [3633/38, GLP-1-(7-37)-γ-Abu-N^ε2Lys-(Pyr)-WAP-OH]",IC50,> 10 µM
